Read-outs that look alike come from different tables or passages of the source.
Legend:
[1] = system: L. donovani cyclophilin A (LdCyPA); assay: Western blotting of LdCyPA expression in promastigotes; assay type: cell-based, Leishmania donovani; conditions: 48 h; CsA 16 μM, DHCsA-d 12 μM, SSG 20 μM; normalized to α-tubulin
Description: (§1) Polyclonal antibodies against LdCyPA were obtained to monitor protein expression. Representative peptides of LdCyPA were analyzed through two predictors for B cells, BEPIPRED and BCPRED12. […] Polyclonal antiserum was produced in New Zealand white rabbits. The rabbits were immunized with Freund’s adjuvant (Sigma-Aldrich), containing 1500 μg of LdCyPA peptide, on days 0, 15 and 30. The rabbits received three subcutaneous injections, the first in complete Freund’s adjuvant and later two in incomplete Freund’s adjuvant. Serum was obtained and antibody titers were estimated by ELISA on 25 and 42 days after the last injection.
(§2) These cells were then lysed with a protein lysis buffer supplemented with protease and phosphatase inhibitors and the protein concentration was determined by the BCA Kit (Beyotime). The extracted proteins were denatured for 5 min at 100 °C after adding appropriate amounts of loading buffer. Approximately 40 to 50 μg of proteins was loaded in each lane of a 12% polyacrylamide gel (Beyotime). […] The PVDF membranes were visualized with an enhanced chemiluminescence western blotting detection kit (Beyotime) and the protein bands were analyzed by densitometric studies using ImageJ software.

[2] = system: L. donovani infected macrophages (RAW 264.7); assay: Cytokine quantification by ELISA in supernatants of L. donovani-infected RAW 264.7 macrophages; assay type: cell-based, mouse; conditions: 24 h, 48 h and 72 h; CsA 10 μM, DHCsA-d 5 μM, SSG 9 μM
Description: (§3) Mouse RAW 264.7 macrophages (5.0 × 10^5 cells/per well), adhered for 24 h at 37 °C, 5% CO2, in PRMI 1640 medium supplemented with 10% FBS were infected with promastigotes at a macrophages-to-parasite ratio of 1:20 for 6 h at 37 °C, 5% CO2, and subsequently the non-infected parasites were removed by washing three times with PBS. Infected macrophages were incubated in PRMI 1640 medium and 10% FBS at 37 °C, 5% CO2, without drugs for 24 h. […] The cells were further incubated for 3 days, and the medium supernatants were retrieved at 24, 48 and 72 h. Subsequently, the cytokines IL-12, IL-10, IL-4, IFN-γ and TNF-α were measured utilizing the BD OpitELA ELISA Kit (BD). NO and H2O2 concentrations in the supernatants were detected by nitric oxide and hydrogen peroxide assay kits (Beyotime), respectively.

[3] = system: L. donovani infected macrophages (RAW 264.7); assay: NO and H2O2 quantification in supernatants of L. donovani-infected RAW 264.7 macrophages; assay type: cell-based, mouse; conditions: 24 h, 48 h and 72 h; CsA 10 μM, DHCsA-d 5 μM, SSG 9 μM
Description: as §3

[4] = system: intracellular amastigotes of Leishmania donovani; assay: Intracellular amastigote inhibition in infected RAW 264.7 macrophages, Wright's stain and microscopy; assay type: cell-based; conditions: for Number of intracellular amastigotes compared to untreated (Wright's staining): CsA 10 μM, DHCsA-d 5 μM, SSG 9 μM; for IC50: intracellular amastigotes in RAW 264.7, mean ± SD
Description: (§4) Leishmania donovani strain MHOM/CN/IN/80/DD8 was used in this study. Leishmania promastigotes in the logarithmic phase were cultured at 28 °C in M199 medium at pH 7.4 (Sigma-Aldrich, Saint Louis, MO, USA), supplemented with 10% fetal bovine serum (Hyclone, Logan, UT, USA) and antibiotics (Pen-Strep, 100 U/ml penicillin-100 […] streptomycin sulphate).
(§5) RAW 264.7 cells (5.0 × 10^5 cells/per well) were plated on round glass coverslips in 24-well plates and allowed to adhere to the slides for 24 h at 37 °C, 5% CO2, in PRMI 1640 medium (Gibco, Franklin, TN, USA) supplemented with 10% FBS (Gibco). Adherent macrophages were infected with L. donovani promastigotes, at a macrophages-to-parasite ratio of 1:20 for 6 h at 37 °C, 5% CO2. Next, the non-infected parasites were removed by washing three times with PBS, and the infected macrophages were incubated in 37 °C in 5% CO2 with PRMI 1640 medium and 10% FBS without drugs for 24 h. […] At 24 and 48 h, the glass coverslips were fixed in methanol (Solarbio, Beijing, China) and stained with Wright’s stain (Solarbio). The numbers of parasites were determined using light microscopy by counting at least 200 cells per slide. The results are expressed as means of three independent experiments. The 50% inhibitory concentration (IC50) was calculated for promastigotes and intracellular amastigotes by fitting the values to a non-linear curve analysis.
(§6) All experiments were carried out in triplicates and repeated at least three times and the figures shown are representative of these experiments. IC50 were calculated according to a nonlinear regression using a log inhibitor-versus response equation with 95% confidence intervals in the GraphPad Prism 6.0 software. The data were analyzed using Student’s t-test for comparison of two groups and data values were expressed as the mean ± standard deviation (SD). Significant differences were determined and designated with asterisks as follows: *P < 0.05; **P < 0.01; ***P < 0.001 and ****P < 0.0001.

[5] = system: L. donovani cyclophilin A (LdCyPA); assay: Western blotting of LdCyPA expression in intracellular amastigotes; assay type: cell-based, Leishmania donovani; conditions: 48 h; CsA 10 μM, DHCsA-d 5 μM, SSG 9 μM; normalized to α-tubulin
Description: as §1, §2

[6] = system: murine macrophages (RAW 264.7); assay: Cytotoxicity assessment, Cell Counting Kit-8; assay type: cell-based, mouse
Description: Murine macrophages were cultivated in a 96-well plate using PRIM 1640 medium containing 10% FBS and maintained at 37 °C, 5% CO2, for 24 h. […] The cytotoxicity was measured at 24 and 48 h following a standard protocol.

[7] = system: L. donovani promastigotes; assay: Transmission electron microscopy of promastigotes; assay type: cell-based, Leishmania donovani; conditions: 48 h; CsA 16 μM, DHCsA-d 12 μM, SSG 20 μM
Excerpt: (§7) Next, the cells were dehydrated in acetone and embedded in epoxy resin. Stained with lead citrate and observed under a Hitachi HT7700 transmission electron microscope.

[8] = system: intracellular amastigotes of L. donovani; assay: Transmission electron microscopy of intracellular amastigotes in RAW 264.7 macrophages; assay type: cell-based, Leishmania donovani; conditions: 48 h, DHCsA-d 5 μM; for Ultrastructure of intracellular amastigotes (mitochondria): CsA 10 μM, SSG 9 μM
Excerpt: as §7

[9] = system: cyclophilin A (CyPA); assay: Western blotting of CyPA expression in RAW 264.7 cells; assay type: cell-based, mouse; conditions: 48 h; CsA 10 μM, DHCsA-d 5 μM, SSG 9 μM; normalized to α-tubulin
Description: These cells were then lysed with a protein lysis buffer supplemented with protease and phosphatase inhibitors and the protein concentration was determined by the BCA Kit (Beyotime). The extracted proteins were denatured for 5 min at 100 °C after adding appropriate amounts of loading buffer. Approximately 40 to 50 μg of proteins was loaded in each lane of a 12% polyacrylamide gel (Beyotime). Proteins were separated at 120 V until the dye front reached the bottom of the gel, followed by transfer of the gels to polyvinylidene fluoride (PVDF) membranes (EMD, MA, USA) in transfer buffer (25 mM Tris-HCl, 192 mM glycine, 20% methanol, 0.02% SDS, pH 8.3) and run at 200 mA for 60 min. The membranes were then soaked in a blocking buffer (1 × PBS, 0.1% Tween 20) and supplemented with 1% bovine serum albumin (Sigma-Aldrich) for 2 h, before incubating overnight at 4 °C individually with LdCyPA polyclonal antibody, CyPA antibody (Affinity, Dublin, OH, USA) and α-tubulin antibody (Affinity) at appropriate dilutions. All the primary antibodies were used at a 1:4000 dilution and horseradish peroxidase-conjugated anti-rabbit immunoglobulin secondary antibodies (Affinity) were used at a 1:5000 dilution. The PVDF membranes were visualized with an enhanced chemiluminescence western blotting detection kit (Beyotime) and the protein bands were analyzed by densitometric studies using ImageJ software.

[10] = system: L. donovani promastigotes; assay: Promastigote inhibition, flow cytometry (annexin V-FITC/PI); assay type: cell-based, Leishmania donovani; conditions: mean ± SD of three independent experiments
Description: as §4
Inhibition rate (%) was calculated as follows: Inhibition rate (%) = 100% − [(No. of live parasites in treated sample/No. of live parasites in untreated control) × 100%].
as §5, with “experiments.” for “experiments. The 50% inhibitory concentration (IC50) was calculated for promastigotes and intracellular amastigotes by fitting the values to a non-linear curve analysis.”
as §6

[11] = 24 h, mean ± SD, read-out: Cytotoxicity (RAW 264.7) CC50
[12] = 48 h, mean ± SD, read-out: Cytotoxicity (RAW 264.7) CC50

| Compound | Expression of LdCyPA in promastigotes vs untreated [1] | IFN-γ level vs untreated infected cells [2] | IL-4 level vs untreated infected cells [2] | IL-10 level vs untreated infected cells [2] | IL-12 level vs untreated infected cells [2] | TNF-α level vs untreated infected cells [2] | H2O2 production vs untreated infected cells [3] | NO production vs untreated infected cells [3] | Number of intracellular amastigotes compared to untreated (Wright's staining) ([4]; 24 h) | IC50 ([4]; 24 h) | Number of intracellular amastigotes compared to untreated (Wright's staining) ([4]; 48 h) | IC50 ([4]; 48 h) | Expression of LdCyPA in intracellular amastigotes vs untreated [5] | CC50 [6, 11] | CC50 [6, 12] | Ultrastructure of promastigote mitochondria [7] | Ultrastructure of intracellular amastigotes (mitochondria) [8] | Expression of CyPA in RAW 264.7 cells vs untreated [9] | IC50 ([10]; 24 h) | IC50 ([10]; 48 h) | other results |
| --- | --- | --- | --- | --- | --- | --- | --- | --- | --- | --- | --- | --- | --- | --- | --- | --- | --- | --- | --- | --- | --- |
| CCCC[C@@H](C)[C@@H](O)[C@H]1C(=O)N[C@@H](CC)C(=O)N(C)CC(=O)N(C)[C@@H](CC(C)C)C(=O)N[C@@H](C(C)C)C(=O)N(C)[C@@H](CC(C)C)C(=O)N[C@@H](C)C(=O)N[C@H](C)C(=O)N(C)[C@@H](CC(C)C)C(=O)N(C)[C@@H](CC(C)C)C(=O)N(C)[C@@H](C(C)C)C(=O)N1C [DHCsA-d, dihydrocyclosporin A] | no significant changes | significant increases | significantly decreased | significantly decreased | significant increases | significant increases | significantly decreased | significantly decreased | reduced | 5.23 ± 2.1 µM | basically absent | 4.84 ± 0.4 µM | no significant changes | 7.98 ± 0.4 µM | 6.65 ± 0.7 µM | completely disorganized | disintegrated | no significant changes | 21.2 ± 1.2 µM | 12.1 ± 1.1 µM | Share of intracellular amastigotes degraded in parasitophorous vacuoles [8]: Almost half |
| O.O.O.O.O.O.O.O.O.O=C([O-])[C@@H]1[O][Sb](=[O])([O][Sb]2(=[O])[O][C@H]([C@H](O)CO)[C@H](O)[C@H](C(=O)[O-])[O]2)[O][C@H]([C@H](O)CO)[C@@H]1O.[Na+].[Na+].[Na+] (stereo partly drawn) [SSG, Sodium stibogluconate] | no significant changes | significant increases | significantly decreased | significantly decreased | significant increases | significant increases | significantly decreased | significantly decreased | reduced | 9.51 ± 0.5 µM | basically absent | 8.27 ± 0.1 µM | no significant changes | > 120 µM | > 120 µM | completely disorganized | disintegrated | no significant changes | 32.3 ± 1.6 µM | 20.2 ± 1.4 µM | CC50 ([6]; RAW 264.7, time not given in the sentence, read-out: CC50): > 120 µM |

From PMC7035640 (Parasites & Vectors, 2020)
